Measured values taken from patent US20220288002A1, “Composition comprising EPA, MA and leucine for improving muscle function” (N.V. Nutricia, priority 2019, published 2022).

Tested on: C2C12 myotubes
Assay: In vitro puromycin incorporation (muscle protein synthesis) in differentiated C2C12 myotubes stimulated with insulin + leucine, Western blot
Format: cell-based, mouse
Description: C2C12 mouse myoblasts are obtained from the American Type Culture Source Collection (no. CRL-1772). Myoblasts are cultured at 37° C. in an atmosphere of 5% CO2 in grown medium consisting of Dulbecco's modified Eagle's medium (DMEM) supplemented with 10% fetal calf serum and antibiotics. Myotube C2C12 differentiation is induced by withdrawing fetal calf serum from confluent cells and adding 10 μg/ml insulin, 5 μg/ml transferrin and 2% horse serum. 8-days-differentiated C2C12 myotubes are treated with medium containing EPA and/or MA for 16 hours. After a 4-hour starvation period, C2C12 myotubes were treated with insulin (100 nM)+Leucine (5 mM) for in total 60 min. A limitation of growing myotubes in vitro is that the cells are not able to produce insulin when administered leucine whereas in vivo the pancreas starts producing insulin when leucine is administered to a subject. Common to this model, to compensate for this limitation, the in vitro experiment requires the separate administration of insulin. […] By western-Blot analyses the level of protein synthesis was analyzed. This gives quantitative information on the incorporation of puromycin which is a measure for intracellular pathways regulating protein synthesis (Akt, mTOR) and/or a direct measure of protein synthesis. […]

## CCCCCCCCCCCCCC(=O)O [MA, myristic acid]
25 μM EPA without MA, or 25 or 50 μM MA without EPA, 16 hours, then insulin (100 nM)+Leucine (5 mM) 60 min, relative to control without stimulation and without fatty acids (indexed at 100)
  puromycin incorporation, individual fatty acid: have an effect on puromycin incorporation
MA without EPA, 25 μM vs 50 μM, insulin + leucine stimulation
  puromycin incorporation, effect of raising MA from 25 μM to 50 μM vs adding 25 μM EPA to 25 μM MA: much smaller effect
